Consider 38 compounds from US20150087627A1, “COMBINATION OF KINASE INHIBITORS AND USES THEREOF” (Intellikine LLC, priority 2011, published 2015).

Holding throughout (format): biochemical
Assay [1] addresses T1, PI3K β (p110β/p85α) (Homo sapiens, UniProt P42338).
T1 construct: purchased Upstate / Millipore Corporation
As to the kind of experiment: PI 3-Kinase (human) HTRF assay, PI3K β. The following applies: read-out: PI3K β IC50. On the technique in general: Time-resolved FRET reads energy transfer from a long-lived donor to a nearby acceptor.

Assay [2] concerns the target T2, PI3K α (p110α/p85α) (Homo sapiens, UniProt P42336).
T2 construct: purchased Upstate / Millipore Corporation
In words: PI 3-Kinase (human) HTRF assay, PI3K α. The following applies: read-out: PI3K α IC50.

Assay [3] has as its target T3, PI3K γ (p110γ) (Homo sapiens, UniProt P48736).
T3 construct: purchased Upstate / Millipore Corporation
In words: PI 3-Kinase (human) HTRF assay, PI3K γ. As to conditions: read-out: PI3K γ IC50.

In assay [4] the target is T4, PI3K δ (Homo sapiens, UniProt O00329).
T4 construct: purchased Upstate / Millipore Corporation
In words: PI 3-Kinase (human) HTRF assay, PI3K δ. The following applies: read-out: PI3K δ IC50.

Where two headings read alike, the source gives them in different places.

T3 sequence (P48736 whole entry): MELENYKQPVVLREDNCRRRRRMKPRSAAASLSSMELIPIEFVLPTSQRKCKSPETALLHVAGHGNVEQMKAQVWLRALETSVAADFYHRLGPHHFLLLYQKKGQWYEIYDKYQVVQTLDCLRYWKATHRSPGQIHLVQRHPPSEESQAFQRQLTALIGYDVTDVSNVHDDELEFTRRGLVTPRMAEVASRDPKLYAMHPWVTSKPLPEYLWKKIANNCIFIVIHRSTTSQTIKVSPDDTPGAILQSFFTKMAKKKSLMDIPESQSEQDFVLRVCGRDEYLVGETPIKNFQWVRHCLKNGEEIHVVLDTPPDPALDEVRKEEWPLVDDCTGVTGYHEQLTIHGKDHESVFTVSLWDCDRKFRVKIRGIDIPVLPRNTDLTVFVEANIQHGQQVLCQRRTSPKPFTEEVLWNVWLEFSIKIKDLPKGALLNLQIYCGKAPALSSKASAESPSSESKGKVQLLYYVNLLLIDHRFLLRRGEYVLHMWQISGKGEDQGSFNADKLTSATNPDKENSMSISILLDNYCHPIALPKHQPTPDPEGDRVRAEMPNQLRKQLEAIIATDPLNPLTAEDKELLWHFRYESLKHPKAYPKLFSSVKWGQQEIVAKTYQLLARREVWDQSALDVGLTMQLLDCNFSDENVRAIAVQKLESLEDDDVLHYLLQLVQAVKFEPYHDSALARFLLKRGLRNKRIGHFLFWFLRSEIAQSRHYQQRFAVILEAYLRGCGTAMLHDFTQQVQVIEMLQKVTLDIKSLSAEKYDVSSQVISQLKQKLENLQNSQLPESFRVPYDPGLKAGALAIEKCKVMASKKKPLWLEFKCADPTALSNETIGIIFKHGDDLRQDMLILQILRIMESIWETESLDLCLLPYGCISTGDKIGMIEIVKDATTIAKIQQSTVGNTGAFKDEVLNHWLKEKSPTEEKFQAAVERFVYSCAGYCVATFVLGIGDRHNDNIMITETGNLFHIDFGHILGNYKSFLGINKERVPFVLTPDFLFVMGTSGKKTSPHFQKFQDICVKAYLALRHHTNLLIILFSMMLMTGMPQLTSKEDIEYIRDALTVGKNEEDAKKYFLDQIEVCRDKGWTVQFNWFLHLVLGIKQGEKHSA
T2 sequence (P42336 whole entry): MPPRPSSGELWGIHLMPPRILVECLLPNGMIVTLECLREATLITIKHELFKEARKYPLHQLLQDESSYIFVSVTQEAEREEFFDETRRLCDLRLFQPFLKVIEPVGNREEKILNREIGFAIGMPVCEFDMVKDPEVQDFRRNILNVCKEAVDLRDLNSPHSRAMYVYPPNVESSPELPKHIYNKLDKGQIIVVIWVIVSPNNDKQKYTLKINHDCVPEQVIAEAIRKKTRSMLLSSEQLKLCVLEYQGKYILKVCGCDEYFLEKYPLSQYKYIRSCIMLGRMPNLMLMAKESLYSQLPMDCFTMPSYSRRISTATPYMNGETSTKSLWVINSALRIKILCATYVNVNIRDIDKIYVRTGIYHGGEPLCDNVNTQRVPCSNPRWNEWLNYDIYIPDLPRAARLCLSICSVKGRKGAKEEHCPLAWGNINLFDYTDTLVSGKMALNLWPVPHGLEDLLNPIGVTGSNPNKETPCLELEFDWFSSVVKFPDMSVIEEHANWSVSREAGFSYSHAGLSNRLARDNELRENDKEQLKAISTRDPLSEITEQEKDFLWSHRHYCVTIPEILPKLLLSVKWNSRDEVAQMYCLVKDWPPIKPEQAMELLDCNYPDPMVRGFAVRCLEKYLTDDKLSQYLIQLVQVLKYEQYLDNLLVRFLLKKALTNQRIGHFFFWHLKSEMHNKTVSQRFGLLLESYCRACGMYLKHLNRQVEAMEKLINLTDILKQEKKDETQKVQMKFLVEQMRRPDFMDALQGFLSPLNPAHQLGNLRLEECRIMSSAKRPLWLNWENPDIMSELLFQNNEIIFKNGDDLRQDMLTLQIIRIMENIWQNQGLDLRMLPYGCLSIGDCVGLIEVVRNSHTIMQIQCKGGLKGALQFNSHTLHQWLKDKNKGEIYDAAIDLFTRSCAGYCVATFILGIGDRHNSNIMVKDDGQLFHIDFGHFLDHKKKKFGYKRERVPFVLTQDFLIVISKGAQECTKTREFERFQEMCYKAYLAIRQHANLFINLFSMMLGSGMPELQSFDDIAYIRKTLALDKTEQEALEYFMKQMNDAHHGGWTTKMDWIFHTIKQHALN
T2 sequence (P27986 whole entry partner): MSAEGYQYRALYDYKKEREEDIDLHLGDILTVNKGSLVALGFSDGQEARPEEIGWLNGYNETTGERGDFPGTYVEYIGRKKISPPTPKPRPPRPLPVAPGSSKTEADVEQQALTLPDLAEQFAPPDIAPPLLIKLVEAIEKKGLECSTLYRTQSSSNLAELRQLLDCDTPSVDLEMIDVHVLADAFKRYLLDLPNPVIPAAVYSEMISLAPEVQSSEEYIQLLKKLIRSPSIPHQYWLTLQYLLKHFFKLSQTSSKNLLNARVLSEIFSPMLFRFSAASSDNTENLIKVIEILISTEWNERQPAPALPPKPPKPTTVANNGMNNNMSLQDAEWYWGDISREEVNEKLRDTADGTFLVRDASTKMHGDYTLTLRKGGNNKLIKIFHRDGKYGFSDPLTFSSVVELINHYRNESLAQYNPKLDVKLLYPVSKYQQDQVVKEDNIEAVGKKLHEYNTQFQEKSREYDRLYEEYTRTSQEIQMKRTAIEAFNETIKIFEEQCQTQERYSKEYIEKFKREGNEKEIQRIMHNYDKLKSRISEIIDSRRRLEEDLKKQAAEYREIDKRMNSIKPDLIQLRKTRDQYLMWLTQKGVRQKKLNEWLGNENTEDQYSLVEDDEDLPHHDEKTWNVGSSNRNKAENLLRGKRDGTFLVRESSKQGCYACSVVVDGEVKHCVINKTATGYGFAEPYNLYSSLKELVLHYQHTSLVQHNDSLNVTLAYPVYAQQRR
T4 sequence (O00329 whole entry): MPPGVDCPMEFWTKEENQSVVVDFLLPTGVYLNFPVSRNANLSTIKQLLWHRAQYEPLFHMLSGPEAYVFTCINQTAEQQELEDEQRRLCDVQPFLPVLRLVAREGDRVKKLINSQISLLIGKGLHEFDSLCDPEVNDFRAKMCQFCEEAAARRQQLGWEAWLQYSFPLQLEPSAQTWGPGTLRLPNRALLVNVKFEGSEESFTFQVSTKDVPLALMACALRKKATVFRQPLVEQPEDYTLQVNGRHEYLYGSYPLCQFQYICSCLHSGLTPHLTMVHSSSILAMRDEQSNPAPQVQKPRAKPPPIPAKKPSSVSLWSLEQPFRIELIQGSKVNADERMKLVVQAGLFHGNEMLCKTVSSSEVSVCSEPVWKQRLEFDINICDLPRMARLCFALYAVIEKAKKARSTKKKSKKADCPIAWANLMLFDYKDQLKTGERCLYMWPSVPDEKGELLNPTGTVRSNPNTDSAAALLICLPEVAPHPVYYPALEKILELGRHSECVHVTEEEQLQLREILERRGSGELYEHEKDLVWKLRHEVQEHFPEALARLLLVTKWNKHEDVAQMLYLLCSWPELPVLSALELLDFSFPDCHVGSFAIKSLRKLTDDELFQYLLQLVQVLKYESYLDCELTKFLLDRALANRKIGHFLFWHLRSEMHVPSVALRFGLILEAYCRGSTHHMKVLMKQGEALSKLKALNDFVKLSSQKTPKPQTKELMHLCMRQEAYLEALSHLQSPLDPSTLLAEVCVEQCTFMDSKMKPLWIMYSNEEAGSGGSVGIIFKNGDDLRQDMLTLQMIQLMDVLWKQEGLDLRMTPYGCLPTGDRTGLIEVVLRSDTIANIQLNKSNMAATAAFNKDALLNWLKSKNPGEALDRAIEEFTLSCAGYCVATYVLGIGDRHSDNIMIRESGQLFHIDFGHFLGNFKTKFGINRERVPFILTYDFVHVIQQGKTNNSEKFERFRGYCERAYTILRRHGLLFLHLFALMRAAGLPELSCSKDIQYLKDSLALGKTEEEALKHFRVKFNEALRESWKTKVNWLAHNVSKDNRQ
T4 sequence (P27986 whole entry partner): as the sequence (P27986 whole entry partner) above
T1 sequence (P42338 whole entry): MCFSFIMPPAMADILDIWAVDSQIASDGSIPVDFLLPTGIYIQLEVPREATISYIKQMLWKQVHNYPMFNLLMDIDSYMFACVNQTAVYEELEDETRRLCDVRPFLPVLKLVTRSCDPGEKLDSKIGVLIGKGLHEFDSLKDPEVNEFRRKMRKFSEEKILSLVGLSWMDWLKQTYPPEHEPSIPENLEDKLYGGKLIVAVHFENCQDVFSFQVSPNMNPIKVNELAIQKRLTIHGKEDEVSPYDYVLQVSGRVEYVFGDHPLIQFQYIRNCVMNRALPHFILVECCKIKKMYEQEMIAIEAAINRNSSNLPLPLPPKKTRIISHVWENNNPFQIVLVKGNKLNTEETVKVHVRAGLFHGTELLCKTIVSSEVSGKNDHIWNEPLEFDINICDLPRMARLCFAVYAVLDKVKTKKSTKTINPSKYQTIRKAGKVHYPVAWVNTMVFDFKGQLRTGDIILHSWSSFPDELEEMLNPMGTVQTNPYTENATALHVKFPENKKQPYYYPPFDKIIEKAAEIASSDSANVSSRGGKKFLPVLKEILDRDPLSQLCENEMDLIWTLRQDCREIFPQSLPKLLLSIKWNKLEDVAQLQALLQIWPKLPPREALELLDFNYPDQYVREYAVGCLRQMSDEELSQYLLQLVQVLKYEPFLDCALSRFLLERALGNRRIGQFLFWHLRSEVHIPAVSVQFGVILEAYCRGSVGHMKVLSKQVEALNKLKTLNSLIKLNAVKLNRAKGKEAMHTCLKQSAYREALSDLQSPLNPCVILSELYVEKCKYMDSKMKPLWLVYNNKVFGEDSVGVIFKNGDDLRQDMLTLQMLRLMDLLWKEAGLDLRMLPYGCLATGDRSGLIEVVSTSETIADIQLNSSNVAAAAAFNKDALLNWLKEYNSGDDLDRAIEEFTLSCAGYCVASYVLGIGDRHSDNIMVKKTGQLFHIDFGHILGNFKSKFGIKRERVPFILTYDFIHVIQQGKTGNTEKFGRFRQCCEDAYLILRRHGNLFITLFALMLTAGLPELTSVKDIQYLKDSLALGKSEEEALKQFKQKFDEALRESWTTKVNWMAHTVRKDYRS
T1 sequence (P27986 whole entry partner): as the sequence (P27986 whole entry partner) above

Broadly, the IC50 is the concentration at which inhibition is half-maximal. On to `Cc1ccn(C2CCN(c3cnc4ccc(-c5ccc6oc(N)nc6c5)cc4n3)CC2)n1` [Compound 223], for which the IC50 in assay [1] was above 10 µM; in assay [2], below 0.1 µM; in assay [3], below 1 µM; in assay [4], above 10 µM.
Take `Nc1nc2cc(-c3ccc4ncc(N5CCN(C(=O)[C@H](N)CO)CC5)nc4c3)ccc2o1` [Compound 299]: the IC50 in assay [1] was below 1 µM; in assay [2], below 0.1 µM; in assay [3] it was below 0.1 µM; in assay [4], below 0.1 µM.
`Nc1nc2ccc(-c3cc(F)c4ncc(C(=O)N5CCOCC5)n4c3)cc2o1` [Compound 439]: the IC50 in assay [1] is above 10 µM; in assay [2] it was below 10 µM; in assay [3], above 10 µM; in assay [4], above 10 µM.
`C[C@H]1CN(c2cnc3scc(-c4ccc5oc(N)nc5c4)c3c2)CCN1` [Compound 399]: the 50% inhibitory concentration (IC50) in assay [1], in assay [2], in assay [3] and in assay [4] was above 10 µM each time.
Take `C[C@H]1COCCN1C(=O)c1cnc2ccc(-c3ccc4oc(N)nc4c3)cn12` [Compound 483]: the IC50 in assay [1] was below 10 µM; in assay [2], below 0.1 µM; in assay [3], below 10 µM; in assay [4] it was above 10 µM.
With `Nc1nc2cc(-c3ccc4ncc(N5CCC(F)(F)CC5)nc4n3)ccc2o1` [Compound 564], the IC50 in assay [1] (Table 4 (PI3K α inhibitors)) is above 10 µM; in assay [2] (Table 4 (PI3K α inhibitors)) it was below 0.1 µM; in assay [3] (Table 4 (PI3K α inhibitors)) it was below 0.1 µM; in assay [4] (Table 4 (PI3K α inhibitors)), above 10 µM.
Turning to `COc1ncc(-c2ccc3ncc(C(=O)N4CCOCC4)n3c2)c2cn[nH]c12` [Compound 517], the IC50 in assay [1] is above 10 µM; in assay [2], below 1 µM; in assay [3] it was below 10 µM; in assay [4] it was below 10 µM.
For the compound `Nc1nc2cc(-c3ccc4ncc(-c5ccc(N6CCOCC6)nc5)n4c3)ccc2o1` [Compound 51], the IC50 in assay [1] was below 1 µM; in assay [2], below 0.1 µM; in assay [3], below 1 µM; in assay [4], below 1 µM.
In the case of `Nc1nc2cc(-c3cnc4ncc(-c5ccncc5)n4c3)ccc2o1` [Compound 61], the half-inhibitory concentration (IC50) in assay [1], in assay [2], in assay [3] and in assay [4] was above 10 µM throughout.
Turning to `C[C@H](N)C(=O)N1CCN(c2cnc3ccc(-c4ccc5oc(N)nc5c4)nc3n2)CC1` [Compound 581], the IC50 in assay [1] (Table 4 (PI3K α inhibitors)), in assay [2] (Table 4 (PI3K α inhibitors)), in assay [3] (Table 4 (PI3K α inhibitors)) and in assay [4] (Table 4 (PI3K α inhibitors)) was below 0.1 µM in each case.
On to `CC(C)(C)N1CCN(C(=O)c2cnc3ccc(-c4ccc5oc(N)nc5c4)cn23)CC1` [Compound 191], for which the IC50 in assay [1] is below 10 µM; in assay [2], below 0.1 µM; in assay [3], below 10 µM; in assay [4] it was below 10 µM.
`Nc1nc2cc(-c3ccc4ncc(C(=O)NCCCN5CCOCC5)n4c3)ccc2o1` [Compound 288]: the IC50 in assay [1] was below 1 µM; in assay [2] it was below 1 µM; in assay [3] it was below 10 µM; in assay [4] it was below 1 µM.
Take `CS(=O)(=O)CCN1CCC(NC(=O)c2cnc3ccc(-c4ccc5oc(N)nc5c4)cn23)CC1` [Compound 199]: the IC50 is below 10 µM in assay [1], below 0.1 µM in assay [2], below 0.1 µM in assay [3] and below 0.1 µM in assay [4].
For `CN1CCN(Cc2nnc3ccc(-c4ccc5nc(N)oc5c4)cn23)CC1` [Compound 547], the IC50 in assay [1], in assay [2], in assay [3] and in assay [4] was above 10 µM in each case.
For `Nc1nc2cc(-c3ccc4ncn(C5CCOCC5)c4c3)ccc2o1` [Compound 48], the IC50 in assay [1] was above 10 µM; in assay [2], below 10 µM; in assay [3], above 10 µM; in assay [4], above 10 µM.
On to `Nc1nc2cc(-c3ccc4ncc(C(=O)N5CC5)n4c3)ccc2o1` [Compound 340], for which the IC50 in assay [1] is above 10 µM; in assay [2] it was below 1 µM; in assay [3], below 1 µM; in assay [4], above 10 µM.
Take `Nc1nc2cc(-c3ccc4ncc(N5CC(N6CCNCC6)C5)nc4n3)ccc2o1` [Compound 585]: the IC50 in assay [1] (Table 4 (PI3K α inhibitors)) was above 10 µM; in assay [2] (Table 4 (PI3K α inhibitors)), below 1 µM; in assay [3] (Table 4 (PI3K α inhibitors)), above 10 µM; in assay [4] (Table 4 (PI3K α inhibitors)) it was above 10 µM.
With `Nc1nsc2ccc(-c3ccc4nccc(-c5ccncc5)c4c3)cc12` [Compound 12], the IC50 in assay [1], in assay [2], in assay [3] and in assay [4] was above 10 µM in each case.
As to `CN1CCN(c2cnc3ccc(-c4ccc5sc(N)nc5c4)cc3n2)CC1` [Compound 127], the IC50 is below 0.1 µM in assay [1], below 1 µM in assay [2], below 10 µM in assay [3] and above 10 µM in assay [4].
The like results for `Nc1nc2cc(-c3ccc4ncc(N5CCN(CC(F)(F)F)CC5)nc4c3)ccc2o1` [Compound 395] were, in that order, above 10 µM, below 0.1 µM, below 0.1 µM and above 10 µM.
On the same counts, the results for `CCn1cnc2ccc(-c3ccc4oc(N)nc4c3)cc2c1=O` [Compound 183] are below 10 µM, below 0.1 µM, below 0.1 µM and below 10 µM.
The like results for `O=C(c1cnc2ccc(-c3cccc(NS(=O)(=O)c4ccccc4)c3)cn12)N1CCOCC1` [Compound 453] were, in that order, above 10 µM, below 10 µM, below 10 µM and above 10 µM.
On to `CS(=O)(=O)N1CCC(Nc2ncnc3ccc(-c4ccc5oc(N)nc5c4)cc23)CC1` [Compound 87], for which the concentration for half-maximal inhibition (IC50) in assay [1] was below 1 µM; in assay [2], below 0.1 µM; in assay [3], below 0.1 µM; in assay [4], below 0.1 µM.
Consider `Cc1cc(-c2ccc3ncc(N4CC(N5CCOCC5)C4)nc3c2)cc2nc(N)oc12` [Compound 365], for which the IC50 in assay [1], in assay [2], in assay [3] and in assay [4] was below 10 µM in each case.
In the case of `Nc1nc2cc(-c3cnc4ccc(C(=O)N5C6CCC5COC6)cn34)ccc2o1` [Compound 540], the 50% inhibitory concentration (IC50) in assay [1], in assay [2], in assay [3] and in assay [4] was above 10 µM throughout.
Regarding `Cc1cc(-c2ccc3ncc(C(=O)N4CCOCC4)n3c2)cc2nc(N)oc12` [Compound 364], the IC50 in assay [1] was below 10 µM; in assay [2], below 1 µM; in assay [3] it was below 1 µM; in assay [4], above 10 µM.
For the compound `Nc1nc2cc(-c3ccc4ncc(N5CCC(N)CC5)nc4c3)ccc2o1` [Compound 168], the half-inhibitory concentration (IC50) in assay [1] is below 1 µM; in assay [2] it was below 0.1 µM; in assay [3], above 10 µM; in assay [4], below 10 µM.
On the same counts, the results for `Nc1nc2cc(-c3ccc4ncc(C(=O)N5CC[C@@H](N6CCOCC6)C5)n4c3)ccc2o1` [Compound 466] are below 10 µM, below 1 µM, below 1 µM and below 10 µM.
Consider `CN1CCN(C(=O)C2CN(c3cnc4ccc(-c5ccc6oc(N)nc6c5)cc4n3)C2)CC1` [Compound 253], for which the IC50 was below 10 µM in assay [1], above 10 µM in assay [2], below 10 µM in assay [3] and below 10 µM in assay [4].
As for `Nc1nc2cc(-c3ccc4ncc(N5CCN(CCO)CC5)nc4c3)ccc2o1` [Compound 100], the IC50 in assay [1] was below 0.1 µM; in assay [2], below 0.1 µM; in assay [3], below 1 µM; in assay [4], below 10 µM.
Consider `CC(=O)Nc1cc2ccc(-c3cc(F)c4oc(N)nc4c3)cn2n1` [Compound 401], for which the IC50 in assay [1] was above 10 µM; in assay [2] it was above 10 µM; in assay [3], below 10 µM; in assay [4], above 10 µM.
For the compound `Cc1cc2oc(N)nc2cc1-c1ccc2ncc(N3CCN[C@@H](C)C3)nc2c1` [Compound 351], the IC50 in assay [1] is below 1 µM; in assay [2], below 10 µM; in assay [3] it was above 10 µM; in assay [4] it was above 10 µM.
In the case of `Nc1nc2ccc(-c3ccc4sc(N)nc4c3)cc2o1` [Compound 249], the half-maximal inhibitory concentration (IC50) in assay [1] was below 0.1 µM; in assay [2] it was below 0.1 µM; in assay [3], below 0.1 µM; in assay [4], below 1 µM.
In the case of `Nc1nc2cc(-c3ccc4ncn(C5CCC5)c(=O)c4c3)ccc2o1` [Compound 205], the IC50 in assay [1] was above 10 µM; in assay [2], below 0.1 µM; in assay [3], above 10 µM; in assay [4], above 10 µM.
Regarding `Nc1nc2cc(-c3ccc4ncn(CCCN5CCCC5)c(=O)c4c3)ccc2o1` [Compound 271], the IC50 in assay [1] was below 10 µM; in assay [2] it was below 1 µM; in assay [3], above 10 µM; in assay [4] it was below 10 µM.
As to `O=C(c1cnc2ccc(-c3cnc(Cl)c(NS(=O)(=O)c4cccc(F)c4)c3)cn12)N1CCOCC1` [Compound 458], the IC50 in assay [1], in assay [2], in assay [3] and in assay [4] was below 0.1 µM throughout.
Take `Nc1nc2cc(-c3ccc4ncc(C(=O)N5CCN(C6CC6)CC5)n4c3)ccc2o1` [Compound 263]: the concentration for half-maximal inhibition (IC50) was below 10 µM in assay [1], below 0.1 µM in assay [2], below 10 µM in assay [3] and below 10 µM in assay [4].
For `Nc1nc2cc(-c3ccc4ncc(C(=O)N5CCC(N6CC(F)(F)C6)C5)n4c3)ccc2o1` (centres unmarked) [Compound 498], the concentration for half-maximal inhibition (IC50) in assay [1] is above 10 µM; in assay [2], below 1 µM; in assay [3], below 10 µM; in assay [4] it was above 10 µM.
